# Source: ChEMBL document CHEMBL1828556, “Synthesis, hypnotic properties and molecular modeling studies of 1,2,7,9-tetraaza-spiro[4.5]dec-2-ene-6,8,10-triones” (Eur J Med Chem, 2011)
# Assays:
# [1] = system: Mus musculus; test: Potentiation of sodium thiopental-induced hypnotic/sedative activity in Albino mouse assessed as sleeping time at 25 mg/kg, ip administered 1 hr prior challenge relative to control; assay type: functional; details: route intraperitoneal
# [2] = system: Mus musculus; test: Potentiation of sodium thiopental-induced hypnotic/sedative activity in Albino mouse assessed as time elapsed between injection of sodium thiopental and loss of righting reflex at 25 mg/kg, ip administered 1 hr prior challenge (Rvb =2.66 +/- 0.23 mins); assay type: functional; details: route intraperitoneal
# [3] = system: Mus musculus; test: Toxicity in Albino mouse assessed as mortality at 250 mg/kg, ip after 24 hrs; assay type: organism-based; set-up: dose 250 mg/kg, route intraperitoneal; details: in vivo
# [4] = system: Mus musculus; test: Toxicity in Albino mouse assessed as mortality at 750 mg/kg, ip after 24 hrs; assay type: organism-based; set-up: dose 750 mg/kg, route intraperitoneal; details: in vivo
# [5] = system: Mus musculus; test: Toxicity in Albino mouse assessed as toxic symptoms at 750 mg/kg, ip after 24 hrs; assay type: organism-based; set-up: dose 750 mg/kg, route intraperitoneal; details: in vivo
# [6] = system: Mus musculus; test: Toxicity in Albino mouse assessed as toxic symptoms at 500 mg/kg, ip after 24 hrs; assay type: organism-based; set-up: dose 500 mg/kg, route intraperitoneal; details: in vivo
# [7] = system: Mus musculus; test: Toxicity in Albino mouse assessed as mortality at 500 mg/kg, ip after 24 hrs; assay type: organism-based; set-up: dose 500 mg/kg, route intraperitoneal; details: in vivo
# [8] = system: Mus musculus; test: Toxicity in Albino mouse assessed as toxic symptoms at 250 mg/kg, ip after 24 hrs; assay type: organism-based; set-up: dose 250 mg/kg, route intraperitoneal; details: in vivo
SMILES,Activity [1],Time [2],Activity [3],Activity [4],Activity [5],Activity [6],Activity [7],Activity [8]
CN1C(=O)N(C)C(=O)C2(C1=O)C(c1ccccc1)C(c1ccccc1)=NN2c1ccccc1 (stereo not drawn),1.3%,3 min,,,,,,
CN1C(=O)N(C)C(=O)C2(C1=O)C(c1ccccc1)C(c1ccccc1)=NN2c1cccc(Cl)c1 (stereo not drawn),192%,1.85 min,,,,,,
CN1C(=O)N(C)C(=O)C2(C1=O)C(c1ccc(Cl)cc1)C(c1ccccc1)=NN2c1ccccc1 (stereo not drawn),20%,3.47 min,,,,,,
CN1C(=O)N(C)C(=O)C2(C1=O)C(c1ccc(Cl)cc1)C(c1ccccc1)=NN2c1cccc(Cl)c1 (stereo not drawn),340.9%,2.3 min,Non-toxic,Non-toxic,Non-toxic,Non-toxic,Non-toxic,Non-toxic
CN1C(=O)N(C)C(=O)C2(C1=O)C(c1ccc(Cl)cc1Cl)C(c1ccccc1)=NN2c1ccccc1 (stereo not drawn),501.2%,2.12 min,Non-toxic,Non-toxic,Non-toxic,Non-toxic,Non-toxic,Non-toxic
CN1C(=O)N(C)C(=O)C2(C1=O)C(c1ccc(F)cc1)C(c1ccccc1)=NN2c1ccccc1 (stereo not drawn),358.6%,2 min,Non-toxic,Non-toxic,Non-toxic,Non-toxic,Non-toxic,Non-toxic
Cc1ccc(C2C(c3ccccc3)=NN(c3ccccc3)C23C(=O)N(C)C(=O)N(C)C3=O)cc1 (stereo not drawn),311.3%,2.92 min,Non-toxic,Non-toxic,Non-toxic,Non-toxic,Non-toxic,Non-toxic
COc1ccc(C2C(c3ccccc3)=NN(c3ccccc3)C23C(=O)N(C)C(=O)N(C)C3=O)cc1 (stereo not drawn),-20.3%,5.25 min,,,,,,
CN1C(=O)N(C)C(=O)C2(C1=O)C(c1ccc(N(C)C)cc1)C(c1ccccc1)=NN2c1ccccc1 (stereo not drawn),299.4%,2.91 min,Non-toxic,Non-toxic,Non-toxic,Non-toxic,Non-toxic,Non-toxic
CN1C(=O)N(C)C(=O)C2(C1=O)C(c1cccs1)C(c1ccccc1)=NN2c1ccccc1 (stereo not drawn),-25.8%,1.79 min,,,,,,
Cc1ccc(C2C(c3ccccc3)=NN(c3ccccc3)C23C(=O)N(C)C(=O)N(C)C3=O)o1 (stereo not drawn),904%,2.66 min,Non-toxic,Non-toxic,Non-toxic,Non-toxic,Non-toxic,Non-toxic
